Experimental data: patent US7419969B2 (Bristol-Myers Squibb Company, priority 2004, dated 2008)

The compounds below were run against T1, HIV-integrase (Human immunodeficiency virus type 1 group M subtype B, UniProt P04585) (assay: in-vitro activity against HIV-integrase (HIV Integrase Inhibition, SPA bead assay)). Settings: Table 1; recombinant integrase, activity class.
T1 construct: Recombinant integrase (0.26 ng) was incubated with the beads
Format: biochemical
Procedure, shortened: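 Recombinant integrase (0.26 ng) pre-bound for 90 min at 37 °C to biotinylated substrate DNA on streptavidin SPA beads, then washed. Inhibitors added with 33P-labelled target DNA; reaction stopped with 10 mM EDTA. Scintillation CPM taken as integration signal.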
In the case of `O=C(NCc1cc(F)ccc1-n1cncn1)c1nc2n(c(=O)c1O)CCOC21CCCC1` [Example 29, N-[[5-fluoro-2-(1H-1,2,4-triazol-1-yl)phenyl]methyl]-6′,7′-dihydro-3′-hydroxy-4′-oxo-spiro[cyclopentane-1,9′(4′H)-pyrimido[2,1-c][1,4]oxazine]-2′-carboxamide], the IC50 is reported as 0.001 to 0.01 µM.
In the case of `O=C(NCc1ccccc1N1CCCCS1(=O)=O)c1nc2n(c(=O)c1O)CCOC21CCCC1` [Example 35, 6′,7′-dihydro-3′-hydroxy-4′-oxo-N-[[2-(tetrahydro-1,1-dioxido-2H-1,2-thiazin-2-yl)phenyl]methyl]-spiro[cyclopentane-1,9′(4′H)-pyrimido[2,1-c][1,4]oxazine]-2′-carboxamide], the IC50 is reported as 0.01 to 0.1 µM.
With `O=C(NCc1ccccc1-n1cncn1)c1nc2n(c(=O)c1O)CCCC21CCC1` [Example 80, N-[[2-(1H-1,2,4-triazol-1-yl)phenyl]methyl]-7′,8′-dihydro-3′-hydroxy-4′-oxo-spiro[cyclobutane-1,9′(6′H)-[4H]pyrido[1,2-α]pyrimidine]-2′-carboxamide] the IC50 was 0.001 to 0.01 µM.
In the case of `O=C(NCc1ccc(F)cc1-n1ccnc1)c1nc2n(c(=O)c1O)CCCC21CCCC1` [Example 7, N-[[4-fluoro-2-(1H-imidazol-1-yl)phenyl]methyl]-7′,8′-dihydro-3′-hydroxy-4′-oxo-spiro[cyclopentane-1,9′(6′H)-[4H]pyrido[1,2-α]pyrimidine]-2′-carboxamide], the IC50 is reported as 0.001 to 0.01 µM.
`CS(=O)(=O)c1cc(F)ccc1CNC(=O)c1nc2n(c(=O)c1O)CCOC21CCCC1` [Example 89, N-[[4-fluoro-2-(methylsulfonyl)phenyl]methyl]-6′,7′-dihydro-3′-hydroxy-4′-oxo-spiro[cyclopentane-1,9′(4′H)-pyrimido[2,1-c][1,4]oxazine]-2′-carboxamide] was tested, and the IC50 was 0.001 to 0.01 µM.
In the case of `CS(=O)(=O)c1cc(F)ccc1CNC(=O)c1nc2n(c(=O)c1O)CCCC21CCC1` [Example 81, N-[[4-fluoro-2-(methylsulfonyl)phenyl]methyl]-7′,8′-dihydro-3′-hydroxy-4′-oxo-spiro[cyclobutane-1,9′(6′H)-[4H]pyrido[1,2-α]pyrimidine]-2′-carboxamide], the IC50 is reported as 0.001 to 0.01 µM.
Compound `O=C(NCc1ccccc1-n1cncn1)c1nc2n(c(=O)c1O)CCCC21CCCC1` [Example 3, N-[[2-(1H-1,2,4-triazol-1-yl)phenyl]methyl]-7′,8′-dihydro-3′-hydroxy-4′-oxo-spiro[cyclopentane-1,9′(6′H)-[4H]pyrido[1,2-α]pyrimidine]-2′-carboxamide] has an IC50 of 0.001 to 0.01 µM.

Same assay, conditions: Table 1a; recombinant integrase, activity class
With `O=C(NCc1ccc(F)cc1-n1ccnn1)c1nc2n(c(=O)c1O)CCOC21CCC1` [Example 101, Spiro[cyclobutane-1,9′(4′H)-pyrimido[2,1-c][1,4]oxazine]-2′-carboxamide, N-[[4-fluoro-2-(1H-1,2,3-triazol-1-yl)phenyl]methyl]-6′,7′-dihydro-3′-hydroxy-4′-oxo-] the IC50 was 0.001 to 0.01 µM.
For `O=C(NCc1ccc(F)cc1-n1cncn1)c1nc2n(c(=O)c1O)CCOC21COC1` [Example 110, Spiro[oxetane-3,9′(4′H)-pyrimido[2,1-c][1,4]oxazine]-2′-carboxamide, N-[[4-fluoro-2-(1H-1,2,4-triazol-1-yl)phenyl]methyl]-6′,7′-dihydro-3′-hydroxy-4′-oxo-], the IC50 was 0.001 to 0.01 µM.
`O=C(NCc1ccccc1N1CCC1=O)c1nc2n(c(=O)c1O)CCOC21CCC1` [Example 125, Spiro[cyclobutane-1,9′(4′H)-pyrimido[2,1-c][1,4]oxazine]-2′-carboxamide, 6′,7′-dihydro-3′-hydroxy-4′-oxo-N-[[2-(2-oxo-1-azetidinyl)phenyl]methyl]-] gave an IC50 of 0.001 to 0.01 µM.
In the case of `O=C(NCc1ccc(F)cc1)c1nc2n(c(=O)c1O)CCOC21COC1` [Example 109, Spiro[oxetane-3,9′(4′H)-pyrimido[2,1-c][1,4]oxazine]-2′-carboxamide, N-[(4-fluorophenyl)methyl]-6′,7′-dihydro-3′-hydroxy-4′-oxo-], the IC50 is reported as 0.001 to 0.01 µM.
